Experimental data taken from paper PMC4161155 (Journal of Medicinal Chemistry, 2014).

Tests used:
[1] = target: T1, rNTS2 receptor (Rattus norvegicus, UniProt Q63384); experiment: NTS2 FLIPR calcium mobilization assay, agonist mode; type: cell-based; conditions: for agonist behaviour in the NTS2 FLIPR assay (calcium release): CHO cell line stably expressing rNTS2, FLIPR Tetra, pilot study
T1 sequence (Q63384 1-416): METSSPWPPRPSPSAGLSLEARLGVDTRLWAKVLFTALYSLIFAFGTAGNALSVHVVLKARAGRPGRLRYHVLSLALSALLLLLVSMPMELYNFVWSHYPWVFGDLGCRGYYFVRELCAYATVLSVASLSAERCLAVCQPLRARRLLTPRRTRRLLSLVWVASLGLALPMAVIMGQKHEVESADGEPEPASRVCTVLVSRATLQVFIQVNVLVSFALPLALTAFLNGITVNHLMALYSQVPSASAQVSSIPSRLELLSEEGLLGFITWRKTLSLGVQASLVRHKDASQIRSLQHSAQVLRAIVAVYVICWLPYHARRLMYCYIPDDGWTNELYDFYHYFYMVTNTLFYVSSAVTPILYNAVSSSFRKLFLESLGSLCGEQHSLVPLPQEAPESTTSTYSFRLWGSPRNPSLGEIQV

[2] = target: T1, rNTS2 receptor; experiment: NTS2 FLIPR calcium mobilization assay, antagonist mode; type: cell-based; conditions: for type of antagonism of 3b in the Ke experiment at NTS2: Ke assays against dose-response curves of control agonist 3b
[3] = target: T1, rNTS2 receptor; experiment: Competitive binding assay versus [125I]NT at NTS2; conditions: ratio of Ki values, versus compound 13
[4] = target: NTS1 (Rattus norvegicus, UniProt P20789); experiment: NTS1 FLIPR assay; type: cell-based; conditions: data not shown
NTS1, sequence (P20789 whole entry): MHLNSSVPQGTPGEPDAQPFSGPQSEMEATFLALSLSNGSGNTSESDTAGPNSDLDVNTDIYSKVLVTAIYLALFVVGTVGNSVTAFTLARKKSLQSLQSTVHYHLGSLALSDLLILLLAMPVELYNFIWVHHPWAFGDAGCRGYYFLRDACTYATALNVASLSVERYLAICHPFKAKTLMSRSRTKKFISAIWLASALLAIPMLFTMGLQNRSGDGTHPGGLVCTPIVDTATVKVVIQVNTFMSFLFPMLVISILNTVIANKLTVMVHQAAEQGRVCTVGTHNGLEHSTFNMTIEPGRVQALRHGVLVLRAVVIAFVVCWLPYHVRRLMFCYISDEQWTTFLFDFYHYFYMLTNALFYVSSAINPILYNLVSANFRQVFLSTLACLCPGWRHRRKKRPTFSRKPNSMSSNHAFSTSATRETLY

Structure (SMILES)	agonist behaviour in the NTS2 FLIPR assay (calcium release) [1]	type of antagonism of 3b in the Ke experiment at NTS2 [2]	activity in the NTS1 FLIPR assay [4]	also measured
COc1cccc(OC)c1-c1cc(C(=O)NC2(C(=O)O)C3CC4CC(C3)CC2C4)nn1-c1ccnc2cc(Cl)ccc12 (stereo not shown) [3a]	full agonists			
Cc1ccc(S(=O)(=O)Nc2ccc3c(c2)c(C(=O)C(F)(F)F)cn3CC(=O)N[C@@H](CC(C)C)C(=O)O)cc1 [compound 5, N-{[5-{[(4-Methylphenyl)sulfonyl]amino}-3-(trifluoroacetyl)-1H-indol-1-yl]acetyl}-L-leucine]		insurmountable antagonist activity	Neither of the test compounds (5 or 13) showed activity	fold more active than 13 in the NTS2 FLIPR assay (antagonist activity) ([2]; ratio of IC50 values, versus compound 13): 90 fold; fold more active than NT in the NTS2 FLIPR assay ([2]; ratio of IC50 values, versus endogenous ligand NT): ~3 fold; fold boost to NTS2 binding affinity versus 13 [3]: 7.5 fold
COc1cccc(OC)c1-c1cc(C(=O)NC2(C(=O)O)C3CC4CC(C3)CC2C4)nn1-c1ccc(C(=O)N(C)CCCN(C)C)cc1C(C)C (stereo not shown) [3b]	full agonists			
C[C@@H]1CN([C@H]2CC[C@](C#N)(c3ccc(F)cc3)CC2)CC[C@]1(C(=O)O)c1ccccc1 [Levocabastine, levocabastine]	potent partial agonist activity			Emax ([1]; read-out: FLIPR assay NTS2 Emax): 14 to 16%
Cc1ccc(S(=O)(=O)Nc2ccc3c(ccn3CC(=O)N[C@@H](CC(C)C)C(=O)O)c2)cc1 [compound 13, N-[(5-{[(4-Methylphenyl)sulfonyl]amino}-1H-indol-1-yl)acetyl]-L-leucine]		insurmountable	Neither of the test compounds (5 or 13) showed activity	NTS2 agonist activity in library screen ([1]; single concentration 10 μM): devoid of NTS2 agonist activity; activity at NTS1 in library screen ([4]; single concentration 10 μM): no activity at NTS1
